Assay results from PubChem BioAssay AID1259407 (Chemical Carcinogenesis Research Information System (CCRIS), 2018).
Active and inactive are the calls of the source. How the calls were made is not given here.

Tested on: CCRIS mutagenicity, Ames/micronucleus/aberration tests
Assay: CCRIS mutagenicity studies
Excerpt: The CCRIS database contains chemical records with carcinogenicity, mutagenicity, tumor promotion, and tumor inhibition test results. It was developed by the National Cancer Institute (NCI). Data are derived from studies cited in primary journals, current awareness tools, NCI reports, and other sources. Test results have been reviewed by experts in carcinogenesis and mutagenesis.
CCRIS provides historical information from the years 1985 - 2011. It is no longer updated.
This is an archive assay for CCRIS mutagenicity studies.

Measured: mutagenic call

C1COCCO1
inactive: Test System: AMES SALMONELLA TYPHIMURIUM, Strain/Indicator: TA1535, Metabolic Activation: RAT LIVER S-9, PHENOBARBITAL AND BETA-NAPHTHOFLAVONE (30%), Method: PREINCUBATION inactive; negative | Test System: AMES SALMONELLA TYPHIMURIUM, Strain/Indicator: TA1535, Metabolic Activation: RAT LIVER S-9, PHENOBARBITAL AND BETA-NAPHTHOFLAVONE, Method: GAS EXPOSURE inactive; negative | Test System: AMES SALMONELLA TYPHIMURIUM, Strain/Indicator: TA1537, Metabolic Activation: HAMSTER LIVER S-9, PHENOBARBITAL AND BETA-NAPHTHOFLAVONE (10%), Method: PREINCUBATION inactive; negative | Test System: AMES SALMONELLA TYPHIMURIUM, Strain/Indicator: TA1537, Metabolic Activation: HAMSTER LIVER S-9, PHENOBARBITAL AND BETA-NAPHTHOFLAVONE (30%), Method: PREINCUBATION inactive; negative | Test System: AMES SALMONELLA TYPHIMURIUM, Strain/Indicator: TA1537, Metabolic Activation: NONE, Method: GAS EXPOSURE inactive; negative | Test System: AMES SALMONELLA TYPHIMURIUM, Strain/Indicator: TA1537, Metabolic Activation: NONE, Method: PREINCUBATION inactive; negative | Test System: AMES SALMONELLA TYPHIMURIUM, Strain/Indicator: TA1537, Metabolic Activation: NONE, Method: STANDARD PLATE inactive; negative | Test System: AMES SALMONELLA TYPHIMURIUM, Strain/Indicator: TA1537, Metabolic Activation: RAT LIVER S-9, PHENOBARBITAL AND 5,6-BENZOFLAVONE, Method: PREINCUBATION inactive; negative | Test System: AMES SALMONELLA TYPHIMURIUM, Strain/Indicator: TA1537, Metabolic Activation: RAT LIVER S-9, PHENOBARBITAL AND 5,6-BENZOFLAVONE, Method: STANDARD PLATE inactive; negative | Test System: AMES SALMONELLA TYPHIMURIUM, Strain/Indicator: TA1537, Metabolic Activation: RAT LIVER S-9, PHENOBARBITAL AND BETA-NAPHTHOFLAVONE (10%), Method: PREINCUBATION inactive; negative | Test System: AMES SALMONELLA TYPHIMURIUM, Strain/Indicator: TA1537, Metabolic Activation: RAT LIVER S-9, PHENOBARBITAL AND BETA-NAPHTHOFLAVONE (30%), Method: PREINCUBATION inactive; negative | Test System: AMES SALMONELLA TYPHIMURIUM, Strain/Indicator: TA1537, Metabolic Activation: RAT LIVER S-9, PHENOBARBITAL AND BETA-NAPHTHOFLAVONE, Method: GAS EXPOSURE inactive; negative | Test System: E.COLI, Strain/Indicator: WP2 (PKM101), Metabolic Activation: NONE, Method: PREINCUBATION inactive; negative | Test System: E.COLI, Strain/Indicator: WP2 (PKM101), Metabolic Activation: NONE, Method: STANDARD PLATE inactive; negative | Test System: E.COLI, Strain/Indicator: WP2 (PKM101), Metabolic Activation: RAT LIVER S-9, PHENOBARBITAL AND 5,6-BENZOFLAVONE, Method: PREINCUBATION inactive; negative | Test System: E.COLI, Strain/Indicator: WP2 (PKM101), Metabolic Activation: RAT LIVER S-9, PHENOBARBITAL AND 5,6-BENZOFLAVONE, Method: STANDARD PLATE inactive; negative | Test System: E.COLI, Strain/Indicator: WP2 UVRA (PKM101), Metabolic Activation: NONE, Method: PREINCUBATION inactive; negative | Test System: E.COLI, Strain/Indicator: WP2 UVRA (PKM101), Metabolic Activation: NONE, Method: STANDARD PLATE inactive; negative | Test System: E.COLI, Strain/Indicator: WP2 UVRA (PKM101), Metabolic Activation: RAT LIVER S-9, PHENOBARBITAL AND 5,6-BENZOFLAVONE, Method: STANDARD PLATE inactive; negative | Test System: E.COLI, Strain/Indicator: WP2 UVRA(PKM101), Metabolic Activation: RAT LIVER S-9, PHENOBARBITAL AND 5,6-BENZOFLAVONE, Method: PREINCUBATION inactive; negative | Test System: E.COLI, Strain/Indicator: WP2UVRA/PKM101, Metabolic Activation: NONE, Method: GAS EXPOSURE inactive; negative | Test System: E.COLI, Strain/Indicator: WP2UVRA/PKM101, Metabolic Activation: RAT LIVER S-9, PHENOBARBITAL AND BETA-NAPHTHOFLAVONE, Method: GAS EXPOSURE inactive; negative | Test System: E.COLI, Strain/Indicator: WP2UVRA, Metabolic Activation: HAMSTER LIVER S-9, PHENOBARBITAL AND BETA-NAPHTHOFLAVONE (10%), Method: PREINCUBATION inactive; negative | Test System: E.COLI, Strain/Indicator: WP2UVRA, Metabolic Activation: HAMSTER LIVER S-9, PHENOBARBITAL AND BETA-NAPHTHOFLAVONE (30%), Method: PREINCUBATION inactive; negative | Test System: E.COLI, Strain/Indicator: WP2UVRA, Metabolic Activation: NONE, Method: GAS EXPOSURE inactive; negative | Test System: E.COLI, Strain/Indicator: WP2UVRA, Metabolic Activation: NONE, Method: PREINCUBATION inactive; negative | Test System: E.COLI, Strain/Indicator: WP2UVRA, Metabolic Activation: RAT LIVER S-9, PHENOBARBITAL AND BETA-NAPHTHOFLAVONE (10%), Method: PREINCUBATION inactive; negative | Test System: E.COLI, Strain/Indicator: WP2UVRA, Metabolic Activation: RAT LIVER S-9, PHENOBARBITAL AND BETA-NAPHTHOFLAVONE (30%), Method: PREINCUBATION inactive; negative | Test System: E.COLI, Strain/Indicator: WP2UVRA, Metabolic Activation: RAT LIVER S-9, PHENOBARBITAL AND BETA-NAPHTHOFLAVONE, Method: GAS EXPOSURE inactive; negative | Test System: MOUSE LYMPHOMA, Strain/Indicator: L5178Y (TK+/TK-), Metabolic Activation: NONE, Method: MICROTITER inactive; negative | Test System: MOUSE LYMPHOMA, Strain/Indicator: L5178Y (TK+/TK-), Metabolic Activation: NONE, Method: SUSPENSION/PLATE inactive; negative | Test System: MOUSE LYMPHOMA, Strain/Indicator: L5178Y (TK+/TK-), Metabolic Activation: RAT LIVER S-9, PHENOBARBITAL AND 5,6-BENZOFLAVONE (2 OR 5%), Method: MICROTITER inactive; negative | Test System: MOUSE LYMPHOMA, Strain/Indicator: L5178Y (TK+/TK-), Metabolic Activation: RAT, LIVER, S-9, AROCLOR 1254, Method: SUSPENSION/PLATE inactive; negative
